Results from patent US20250241926A1, “HETEROCYCLIC COMPOUNDS FOR USE IN THE TREATMENT OF CANCER” (ARTIOS PHARMA LIMITED, priority 2021, published 2025).

What follows are compounds tested against T1, Human Polθ polymerase domain (aa1820-2590) (Homo sapiens, UniProt O75417) (assay: Polθ Polymerase Domain Kinact/Kl Assay (PicoGreen)). Conditions: covalent inhibitors, kobs vs [I] fit, 0.8 nM Polθ, 100 nM DNA substrate.
T1 construct: Human Polθ polymerase domain (aa1820-2590) was expressed in E. Coli; made in house; host or cells: E. coli
T1 sequence (O75417 1820-2590): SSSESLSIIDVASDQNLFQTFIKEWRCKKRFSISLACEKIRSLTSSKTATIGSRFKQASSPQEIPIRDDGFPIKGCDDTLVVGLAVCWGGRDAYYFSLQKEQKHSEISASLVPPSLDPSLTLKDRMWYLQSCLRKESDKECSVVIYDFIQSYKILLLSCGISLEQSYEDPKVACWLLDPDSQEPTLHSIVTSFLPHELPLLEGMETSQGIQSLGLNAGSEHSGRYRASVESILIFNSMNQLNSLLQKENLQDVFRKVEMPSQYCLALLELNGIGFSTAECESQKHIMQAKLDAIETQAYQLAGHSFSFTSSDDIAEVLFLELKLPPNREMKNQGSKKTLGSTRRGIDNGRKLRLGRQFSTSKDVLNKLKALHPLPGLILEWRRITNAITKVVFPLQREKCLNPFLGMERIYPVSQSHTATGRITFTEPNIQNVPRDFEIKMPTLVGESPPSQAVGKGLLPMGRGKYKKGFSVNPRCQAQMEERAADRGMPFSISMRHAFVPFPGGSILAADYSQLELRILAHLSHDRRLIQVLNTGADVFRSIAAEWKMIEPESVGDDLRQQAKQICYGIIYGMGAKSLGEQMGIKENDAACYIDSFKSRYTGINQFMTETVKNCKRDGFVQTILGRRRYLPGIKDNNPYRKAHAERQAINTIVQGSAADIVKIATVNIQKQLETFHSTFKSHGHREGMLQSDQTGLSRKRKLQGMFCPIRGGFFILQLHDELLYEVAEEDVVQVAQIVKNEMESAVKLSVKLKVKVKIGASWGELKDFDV
Assay type: biochemical
Experimental: Polθ Polymerase Domain Kinact/Kl Assay
A PicoGreen assay was used to measure the Kinact and Kl values of covalent compounds that inhibit the activity of Polθ in vitro.
Human Polθ polymerase domain (aa1820-2590) was expressed in E. Coli, purified, aliquoted and stored at −80° C. until required. Polθ substrate was generated from a 1.2:1 mix of DNA II Short to DNA II Long to give a final concentration of […] substrate in annealing buffer (20 mM Tris pH 7.5, 50 mM NaCl). The substrate was heated in 50 mL aliquots to 95° C. in a heating block for 5 min before the heating block switched off, the reaction left to cool to rt and stored at −20° C. until required.
Assay measurements were performed with 1× buffer comprising 25 mM Tris pH 7.5, 12.5 mM NaCl, […], 5% (v/v) glycerol, 0.01% v/v Triton x-100, 0.1 mg/ml BSA, 1 mM DTT. Test compounds were prepared by dilution in 100% DMSO to give a 12 μM intermediate stock of each (100× final top concentration). 100 nL of 23× 1:1.5-fold serial dilutions and a DMSO only control were dispensed using the Tecan dispenser into Greiner 384 well black low volume plates (product code 784076). DMSO concentration was maintained at 1% of the final assay volume by back filling with DMSO.
2× Working stock of substrate (200 nM of DNA substrate and […] dNTPs) and enzyme (1.4 nM Polθ) were made up in assay buffer. 5 μL/well of both enzyme and substrate 2× solutions were dispensed using a Tempest dispenser (Formulatrix) into assay plates that had been pre-dispensed with compound to give a final assay concentration of 100 nM DNA substrate, […] dNTPs and 0.8 nM Polθ. To stop the reaction, […] of a solution containing 25 mM Tris-HCl pH 7.5 and 20 mM EDTA was added at […] (t=0, 2.5, 5, 7.5, 10, 12.5, 15, 20, 25, 30, 35, 40, 45, 50, 55 and 60 min) using the Tempest's time delay function. The plates were covered during the time course to prevent evaporation. After completing the assay, 5 μL of detection reagent (25 mM Tris-HCl pH 7.5 and 2.5% (v/v) PicoGreen) was dispensed into the wells using a Tempest liquid handler (Formulatrix) and plates subsequently read on the CLARIOstar Plus (BMG Labtech) using the default optical settings for fluorescein and the auto gain/focus settings.
All data analysis was carried out using GraphPad Prism V. 8 (GraphPad Software Inc, San Diego, CA) Time course data for each inhibitor concentration was fitted to equation 1 to determine kobs values.^1 Any time points where the control (DMSO alone) reaction was no longer linear were excluded from the analysis.
A secondary plot of kobs vs [I] is used to determine the Kinact and Kl parameters (for a 2-step covalent inhibitor) by fitting to equation 2.1
[formula] • 1) Evaluation of Enzyme Inhibitors in Drug Discovery (Ch9), R. A Copeland, Wiley, 2nd Edition 2013.

kinact/KI | Compound
190000 M⁻¹ s⁻¹ | Cc1cc(C(F)(F)F)c(C#N)c(N[C@H]2CCN(CC(O)CN3CCN(C(=O)/C=C/CN(C)C)CC3)c3cc(F)ccc3N(C)C2=O)n1 (mixture of isomers) [Example 34A, 2-(((S)-6-((S/R)-3-(4-((E)-4-(Dimethylamino)but-2-enoyl)piperazin-1-yl)-2-hydroxypropyl)-8-fluoro-1-methyl-2-oxo-1,2,3,4,5,6-hexahydrobenzo[b][1,4]diazocin-3-yl)amino)-6-methyl-4-(trifluoromethyl)nicotinonitrile]
440000 M⁻¹ s⁻¹ | (S)-2-((6-(2-(4-(1-Acrylo- yl-3-hydroxyazetidin-3- yl)piperidin-1-yl)ethyl)-7- fluoro-1-methyl-2-oxo- 1,2,3,4,5,6-hexahydro- benzo[b][1,4]diazocin-3- yl)amino)-6-methyl-4- (trifluoromethyl)nicotino- nitrile [Example 12]

Same assay, conditions: covalent inhibitors, kobs vs [I] fit, 0.8 nM Polθ, 100 nM DNA substrate, read-out: Kinact/KI

Compound | kinact/KI
C=CC(=O)N1CC2(CN(CCN3CC[C@H](Nc4nc(C)cc(C(F)(F)F)c4C#N)C(=O)N(C)c4ccccc43)C2)C1 [Example 22, (S)-2-((6-(2-(6-Acryloyl-2,6-diazaspiro[3.3]heptan-2-yl)ethyl)-1-methyl-2-oxo-1,2,3,4,5,6-hexa-hydrobenzo[b][1,4]diazocin-3-yl)amino)-6-methyl-4-(trifluorometh-yl)nicotinonitrile] | 500000 M⁻¹ s⁻¹
C=CC(=O)N1CC2(CN(CCN3CC[C@H](Nc4nc(C)cc(C(F)(F)F)c4C#N)C(=O)N(C)c4cccc(F)c43)CCN2)C1 [Example 23, (S)-2-((6-(2-(2-Acryloyl-2,5,8-triazaspiro[3.5]nonan-8-yl)ethyl)-7-fluoro-1-methyl-2-oxo-1,2,3,4,5,6-hexahydrobenzo[b][1,4]diazocin-3-yl)amino)-6-methyl-4-(trifluoromethyl)nicotinonitrile] | 940000 M⁻¹ s⁻¹
Cc1cc(C(F)(F)F)c(C#N)c(N[C@H]2CCN(CCN(C)C(=O)C3CN(C(=O)/C=C/CN(C)C)C3)c3ccccc3N(C)C2=O)n1 [Example 31, (S,E)-N-(2-(4-((3-Cyano-6-methyl-4-(trifluoromethyl)pyridin-2-yl)amino)-6-methyl-5-oxo-3,4,5,6-tetrahydrobenzo[b][1,4]diazocin-1(2H)-yl)ethyl)-1-(4-(dimethylamino)but-2-enoyl)-N-methylazetidine-3-carboxamide] | 920000 M⁻¹ s⁻¹
C=CC(=O)N1CCN(CC(O)CN2CC[C@H](Nc3nc(C)cc(C(F)(F)F)c3C#N)C(=O)N(C)c3ccc(F)cc32)CC1 (single isomer, unassigned) [Example 33B] | 120000 M⁻¹ s⁻¹
C=CC(=O)N1CC(N2CCN(CCN3CC[C@H](Nc4nc(C)cc(C(F)(F)F)c4C#N)C(=O)N(C)c4ccccc43)CC2)C1 [Example 20, (S)-2-((6-(2-(4-(1-Acrylo-ylazetidin-3-yl)piperazin-1-yl)ethyl)-1-methyl-2-oxo-1,2,3,4,5,6-hexa-hydrobenzo[b][1,4]diazocin-3-yl)amino)-6-methyl-4-(trifluorometh-yl)nicotinonitrile] | 500000 M⁻¹ s⁻¹
C=CC(=O)N1CC2(CN(CC(O)CN3CC[C@H](Nc4nc(C)cc(C(F)(F)F)c4C#N)C(=O)N(C)c4ccccc43)C2)C1 (stereo partly drawn) [Example 36, 2-(((3S)-6-(3-(6-Acryloyl-2,6-diazaspiro[3.3]heptan-2-yl)-2-hydroxypropyl)-1-methyl-2-oxo-1,2,3,4,5,6-hexahydrobenzo[b][1,4]diazocin-3-yl)amino)-6-methyl-4-(trifluoromethyl)nicotinonitrile] | 360000 M⁻¹ s⁻¹
C=CC(=O)N1CC2(CCN(CCN3CC[C@H](Nc4nc(C)cc(C(F)(F)F)c4C#N)C(=O)N(C)c4cccc(F)c43)CC2)C1 [Example 8, (S)-2-((6-(2-(2-Acryloyl-2,7-diazaspiro[3.5]nonan-7-yl)ethyl)-7-fluoro-1-methyl-2-oxo-1,2,3,4,5,6-hexahydrobenzo[b][1,4]diazocin-3-yl)amino)-6-methyl-4-(trifluorometh-yl)nicotinonitrile] | 490000 M⁻¹ s⁻¹
C=CC(=O)N1CC2(CN(CCN3CC[C@H](Nc4nc(C)cc(C(F)(F)F)c4C#N)C(=O)N(C)c4ccccc43)CCO2)C1 [Example 21, (S)-2-((6-(2-(2-Acryloyl-5-oxa-2,8-diazaspiro[3.5]nonan-8-yl)ethyl)-1-meth-yl-2-oxo-1,2,3,4,5,6-hexa-hydrobenzo[b][1,4]diazocin-3-yl)amino)-6-methyl-4-(trifluorometh-yl)nicotinonitrile] | 1.2e+06 M⁻¹ s⁻¹

Continued, values first:

kinact/KI | Compound
2.4e+06 M⁻¹ s⁻¹ | C=CC(=O)N1CC(n2cnc(CN3CC[C@H](Nc4nc(C)cc(C(F)(F)F)c4C#N)C(=O)N(C)c4cccc(F)c43)n2)C1 [Example 66, (S)-2-((6-((1-(1-Acryloylazetidin-3-yl)-1H-1,2,4-triazol-3-yl)methyl)-7-fluoro-1-methyl-2-oxo-1,2,3,4,5,6-hexahydrobenzo[b][1,4]diazocin-3-yl)amino)-6-methyl-4-(trifluoromethyl)nicotinonitrile]
130000 M⁻¹ s⁻¹ | C=CC(=O)N1CC(c2nnc(CN3CC[C@H](Nc4nc(C)cc(C(F)(F)F)c4C#N)C(=O)N(C)c4cccc(F)c43)[nH]2)C1 [Example 68, (S)-2-((6-((5-(1-Acryloylazetidin-3-yl)-4H-1,2,4-triazol-3-yl)methyl)-7-fluoro-1-methyl-2-oxo-1,2,3,4,5,6-hexahydrobenzo[b][1,4]diazocin-3-yl)amino)-6-methyl-4-(trifluoromethyl)nicotinonitrile]
340000 M⁻¹ s⁻¹ | C=CC(=O)N1CCN(CCCN2CC[C@H](Nc3nc(C)cc(C(F)(F)F)c3C#N)C(=O)N(C)c3cccc(F)c32)CC1 [Example 37, (S)-2-((6-(3-(4-Acryloylpiperazin-1-yl)propyl)-7-fluoro-1-methyl-2-oxo-1,2,3,4,5,6-hexahydrobenzo[b][1,4]diazocin-3-yl)amino)-6-methyl-4-(trifluoromethyl)nicotinonitrile]
1.8e+06 M⁻¹ s⁻¹ | C=CC(=O)N1CC2(CN(CCN3CC[C@H](Nc4nc(C)cc(C(F)(F)F)c4C#N)C(=O)N(C)c4cccc(Cl)c43)C[C@@H](C)N2)C1 [Example 64, 2-(((S)-6-(2-((R)-2-Acryloyl-6-methyl-2,5,8-triazaspiro[3.5]nonan-8-yl)ethyl)-7-chloro-1-methyl-2-oxo-1,2,3,4,5,6-hexahydrobenzo[b][1,4]diazocin-3-yl)amino)-6-methyl-4-(trifluoromethyl)nicotinonitrile]
1.4e+06 M⁻¹ s⁻¹ | Cc1cc(C(F)(F)F)c(C#N)c(N[C@H]2CCN(CCCOC3CN(C(=O)/C=C/CN(C)C)C3)c3ccccc3N(C)C2=O)n1 [Example 41, (S, E)-2-((6-(3-((1-(4-(Dimethylamino)but-2-enoyl)azetidin-3-yl)oxy)propyl)-1-methyl-2-oxo-1,2,3,4,5,6-hexahydrobenzo[b][1,4]diazocin-3-yl)amino)-6-methyl-4-(trifluoromethyl)nicotinonitrile]
